Results reported in paper PMC5644030 (Biochemistry, 2017).

Experiments:
Rv3404c [1] = biological target: T1, Rv3404c (Mycobacterium tuberculosis, UniProt P9WKZ3)
Rv3404c [2] = biological target: T1, Rv3404c; remark: listed apart in the source

T1 sequence (P9WKZ3 whole entry): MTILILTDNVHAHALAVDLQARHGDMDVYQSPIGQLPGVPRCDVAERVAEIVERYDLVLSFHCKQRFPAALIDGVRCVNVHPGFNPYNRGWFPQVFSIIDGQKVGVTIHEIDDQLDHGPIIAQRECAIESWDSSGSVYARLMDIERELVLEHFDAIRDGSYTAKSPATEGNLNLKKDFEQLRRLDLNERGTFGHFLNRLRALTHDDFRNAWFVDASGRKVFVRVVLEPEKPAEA

Compound	X-ray crystallography, 1.6 Å ternary complex (Rv3404c [1])	HPLC and ESI mass spectrometry of product (Rv3404c [2])
Nc1nc2c(c(=O)[nH]1)N(C=O)[C@@H](CNc1ccc(C(=O)N[C@@H](CCC(=O)O)C(=O)O)cc1)CN2 [N5-formyl-THF]	The structure of Rv3404c in complex with N5-formyltetrahydrofolate (N5-formyl-THF) and dTDP-Qui4N was determined	
Nc1nc2c(c(=O)[nH]1)N[C@@H](CN(C=O)c1ccc(C(=O)N[C@@H](CCC(=O)O)C(=O)O)cc1)CN2 [N10-formyl-THF]		Upon incubation of dTDP-Qui4N and N10-formyl-THF with Rv3404c, a peak was observed
